Patent US8242160B2, “Inhibitors of ubiquitin E1” (The United States of America, as represented by the …, priority 2005, dated 2012)

Assays:
[1] = system: p53; assay: Cellular p53 level by immunoblotting; type: cell-based; conditions: six hours treatment; RPE cells
From the text: (§1) FIG. 5A depicts the increase in the levels of Mdm2 and p53 in RPE cells after treatment with the E1 inhibitor 4-[4-(5-nitro-furan-2-ylmethylene)-3,5-dioxo-pyrazolidin-1-yl]-benzoic acid methyl acid.

[2] = system: Mdm2; assay: Cellular Mdm2 level by immunoblotting; type: cell-based; conditions: six hours treatment; RPE cells
From the text: as §1

[3] = molecular target: T1, E1 (Homo sapiens, UniProt P22314); assay: Loading of E1 with ubiquitin in cells, anti-E1 immunoblot; type: cell-based; conditions: 50 μM, 1 hour
T1 construct: endogenous in cells; host or cells: RPE cells
T1 sequence (P22314 1-1058): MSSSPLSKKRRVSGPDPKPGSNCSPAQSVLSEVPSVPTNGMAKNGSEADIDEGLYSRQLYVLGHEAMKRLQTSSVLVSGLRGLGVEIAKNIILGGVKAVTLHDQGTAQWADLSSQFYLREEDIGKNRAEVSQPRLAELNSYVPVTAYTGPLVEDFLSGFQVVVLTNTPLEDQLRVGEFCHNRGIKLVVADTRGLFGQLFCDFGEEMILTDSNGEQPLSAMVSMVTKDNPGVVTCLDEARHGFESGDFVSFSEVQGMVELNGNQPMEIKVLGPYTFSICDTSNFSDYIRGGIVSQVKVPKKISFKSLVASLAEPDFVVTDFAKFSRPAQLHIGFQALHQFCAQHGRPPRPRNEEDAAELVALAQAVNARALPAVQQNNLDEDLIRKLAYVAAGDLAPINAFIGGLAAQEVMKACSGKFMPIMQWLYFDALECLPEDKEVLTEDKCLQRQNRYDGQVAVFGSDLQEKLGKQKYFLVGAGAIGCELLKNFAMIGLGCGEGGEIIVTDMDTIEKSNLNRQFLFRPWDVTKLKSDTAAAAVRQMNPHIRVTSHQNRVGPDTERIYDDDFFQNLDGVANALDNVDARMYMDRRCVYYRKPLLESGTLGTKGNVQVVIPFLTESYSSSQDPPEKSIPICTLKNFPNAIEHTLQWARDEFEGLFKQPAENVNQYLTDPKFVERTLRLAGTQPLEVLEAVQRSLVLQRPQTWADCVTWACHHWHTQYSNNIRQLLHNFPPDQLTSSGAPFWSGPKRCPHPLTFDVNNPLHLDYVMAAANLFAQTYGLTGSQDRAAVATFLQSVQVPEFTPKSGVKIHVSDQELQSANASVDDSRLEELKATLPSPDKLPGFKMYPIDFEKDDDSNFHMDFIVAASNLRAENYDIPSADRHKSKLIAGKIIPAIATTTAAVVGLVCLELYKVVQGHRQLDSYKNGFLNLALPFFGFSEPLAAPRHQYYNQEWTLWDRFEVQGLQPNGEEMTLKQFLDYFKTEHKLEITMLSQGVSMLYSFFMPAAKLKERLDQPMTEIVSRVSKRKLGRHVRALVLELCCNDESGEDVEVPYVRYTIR
Protocol: RPE cells were treated with the E1 inhibitor of 4-[4-(5-nitro-furan-2-ylmethylene)-3,5-dioxo-pyrazolidin-1-yl]-benzoic acid methyl acid (designated as EI-41, 50 μM), HLI98C (50 μM) or iodoacetamide […] for 1 hour followed by lysis, SDS-PAGE under either non-reducing (FIG. 7A) or reducing (FIG. 7B) conditions and immunoblotting with anti-E1. Results are shown in FIGS. 7A and 7B, where the EI-41 compound is shown to inhibit the loading of EI with ubiquitin.

[4] = system: IκBα; assay: TNFα-induced IκBα degradation in cells; type: cell-based
[5] = molecular target: T2, His6-E1 (Homo sapiens, UniProt P22314); assay: Bead immobilized His6-E1: wash-out and glutathione competition; type: biochemical
T2 sequence (P22314 1-1058): T1 sequence (P22314 1-1058)
Protocol: Bead immobilized His6-E1 was treated with E1 inhibitor 4-[4-(5-nitro-furan-2-ylmethylene)-3,5-dioxo-pyrazolidin-1-yl]-benzoic acid methyl acid (E1 41) at a range of concentrations (0-50 μm) as indicated in FIG. 9A. The beads were subjected to wash (+wash) or no wash (−wash) conditions.
The ability of a compound to inhibit E1 activity may come from the ability of the compound to interfere with the formation of thiolester linkages between ubiquitin and E1. Next, the biological activity of E1 41 was tested to examine if it can be inhibited or prevented by treatment with an excess of reduced glutathione. […] Thus, E1 41 can act as a target for nucleophilic attack by active site thiol of E1 (e.g., a central double bond of a compound can serve as Michael-acceptor for the nucleophilic thiol in a Michael-type reaction).

[6] = system: NFκB; assay: NFκB response element-driven luciferase reporter, IL-1 induced; type: cell-based, human; conditions: HeLa cells, 50 μM for 10 minutes, then IL-1 0-1.0 ng/ml for 2 hours
Protocol: HeLa cells (human epithelial cells) were transfected with a NFκB response element-driven luciferase reporter. The cells were treated with E1 41 (50 μM) for 10 minutes, or dimethyl sulfoxide (DMSO) control. Interleukin 1 (IL-1) was added to the cells for 2 hours. IL-1 was added at concentrations ranging from 0-1.0 ng/ml to induce activation of NFκB. An assay for luciferase activity was carried out according to the methods as described in the commercially available PROMEGA system for luciferase detection.

[7] = system: MEFs (mouse embryonic fibroblasts) that express wild type p53; assay: Killing of MEFs that express wild type p53; type: cell-based
From the text: (§2) While p53 induces apoptotic cell death in many tumor cells, it generally only induces growth arrest in untransformed cells. This has been the rationale for many studies targeting the p53 system.

[8] = system: MEFs from p53-deficient mice; assay: Killing of MEFs from p53-deficient mice; type: cell-based, mouse
From the text: as §2

[9] = system: TRAF6; assay: TNFα-induced TRAF6 ubiquitination, immunoprecipitation and immunoblotting; type: cell-based; conditions: T cell leukemia Jurkat
From the text: To determine whether 4-[4-(5-nitro-furan-2-ylmethylene)-3,5-dioxo-pyrazolidin-1-yl]-benzoic acid methyl acid blocks ubiquitination of TRAF6 in response to TNFα, TRAF6 was immunoprecipitated from the T cell leukemia Jurkat after TNFα treatment, followed by immunoblotting (FIG. 4C).

E1-Ub thiol-ester formation in RPE cells [3]: inhibit E1-Ub thiol-ester formation | removal of compound from E1 by washing ([5]; 0-50 μm, wash versus no wash): cannot be washed away | IL-1 induced NFκB luciferase reporter activity [6]: reduction of luciferase activity
Compound: COC(=O)c1ccc(N2NC(=O)/C(=C/c3ccc([N+](=O)[O-])o3)C2=O)cc1 [E1-41, 4-[4-(5-nitro-furan-2-ylmethylene)-3,5-dioxo-pyrazolidin-1-yl]-benzoic acid methyl acid]
cellular p53 level [1]: increased | cellular Mdm2 level [2]: increased | TNFα-induced IκBα degradation [4]: prevents TNFα-induced IκBα degradation | effect of reduced glutathione on the inhibitory action on E1 ([5]; 50 μM compound, GSH 0.1-10 mM): can be prevented by the addition of reduced glutathione (GSH) in a dose-dependent manner | killing of MEFs expressing wild type p53 [7]: only kills MEFs | killing of MEFs from p53-deficient mice [8]: relatively resistant | TNFα-induced ubiquitination of TRAF6 [9]: effectively inhibited
